The source of these data is patent US9272993B2, “Naphthoquinone derivatives useful for prevention of amyloid deposits and treatment of diseases involving amyloidogenesis” (TECHNOLOGY INNOVATION MOMENTUM FUND (ISRAEL) LIMITED …, priority 2008, dated 2016).

Structures are written as SMILES. Like-named read-outs stand apart in the source and are kept apart here.

Data set [1] deals with T1, Aβ1-40 fibrils (Homo sapiens, UniProt P05067).
T1 construct: Amyloid β-peptide(1-42) and amyloid β-peptide(1-40) trifluoroacetate salts; purchased Bachem (Bubendorf, Switzerland); host or cells: synthetic peptide
The experiment in a line: Thioflavin T (ThT) fluorescence assay of fibril formation. Type of data set: biochemical. The protocol:
For executing the ThT florescence assay, Aβ1-40 was dissolved to a concentration of 10 μM in 10% DMSO in PBS (pH 7.4). Aβ was immediately mixed with or without different concentrations of SY-81 or SY-83 at a 1:1 ration to a final concentration of 5 μM. The samples were incubated at 37° C. and the fibrillogenesis rate was followed by thioflavin T (ThT) fluorescence assay (excitation at 450 nm, 2.5 nm slit, and emission at 480 nm, 5 nm slit), over a course of 11 days to two weeks. ThT was added to a 10-fold diluted sample and measured using a Jobin Yvon Horiba Fluoromax 3 fluorimeter.
Though there is a growing recognition that the early Aβ oligomer intermediates and not the fibrils are the most toxic amyloid forms in AD, this debate has not been completely resolved. […] This method provides quantitative information on amyloid fibrils growth. β-amyloid was allowed to form amyloid fibrils either in the presence of different concentrations of SY-83 (FIGS. 5A, C) or SY-81 (FIGS. 5B, D) or with no inhibitor (WT). The fibrillization process was followed for several days until a plateau state was reached. Fluorescence values were measured throughout.
An end point experiment was further conducted with various concentrations of SY-81 and SY-83 in order to determine IC50. An IC50 of 50 nM and 100 nM was measured for SY-81 and SY-83, respectively. […]

The test system of data set [2] is rat PC12 cell line. In words: MTT cell viability assay, cytotoxicity of soluble Aβ oligomers. Type of data set: cell-based. Particulars: PC12 cells, 24 hours. The protocol: The cytotoxicity assay was performed with Rat PC12 cells (1.5×10^5 cells/mL) cultured in 96-well microplates (100 μL/well) and incubated overnight at 37° C. Samples with toxic oligomers from above were either dialyzed over night against PBS buffer or diluted with 9 volumes of an aqueous solution containing 33% methanol and 4% acetic acid, and incubated for 2 hours at 4° C. The samples were then centrifuged at 16,000 g for 40 minutes, the supernatant discarded and the pellet was resuspended in 5 mM NaH2PO4, 35 mM NaCl, pH 7.4. To each well we added 100 μL of 0.5 μM Aβ which formed toxic oligomers and prepared mixtures of inhibitors at various concentrations. Each experiment was repeated four times. Following incubation for 24 hours at 37° C., cell viability was evaluated using the MTT assay. Briefly, 20 μL of 5 mg/mL MTT dissolved in PBS was added to each well. […] Finally, color intensity was measured using an ELISA reader at 570 nm.
To further substantiate the inhibition induced by SY-81, it was tested whether SY-81 affects the toxicity of Aβ oligomers towards the rat PC12 cell line. Toxic oligomers were pre-incubated with different concentrations of SY-81 and toxicity was assessed using the MTT cell viability assay.

Data set [3] can be described thus: Locomotion (climbing) assay in Alzheimer's Drosophila model. Particulars: medium with 0.75 mg/ml, control males lacking Aβ1-42 expression. Type of data set: in vivo, Drosophila melanogaster. The protocol:
In vivo studies (fly maintenance) were performed with Drosophila melanogaster flies grown on a standard corneal-molasses medium and kept at 25° C. As Drosophila females can store sperm cells in their bodies, crosses were conducted using virgin females collected no longer than 8 hours after eclosion at 25° C. or 18 hours after eclosion at 18° C. Adult offspring (F1) from the crosses were collected up to 9 days after the beginning of their eclosion at 25° C. in order to avoid collection of offspring from the next generation (F2). […]
The locomotion (climbing) assay was carried out in fresh rearing vials, each containing 10 flies of a given class (four classes mentioned below). […] The percent of flies which climbed to the top of the test tube was then calculated over time. […] Data were analyzed using standard ANOVA statistical exams.
In order to assess the effect of SY-81 and SY-83 in the living organism, a Drosophila model of Alzheimer's was used, based on the work of Crowther et al. (ibid) who generated transgenic flies that express the human Aβ1-42 protein conditionally, using the UAS-Gal4 expression system. […] These defects included progressive decline of locomotion in aged flies (measured as ability to climb up), and marked shortening of life span. […]
Suppression of climbing defects was assessed as detailed below in flies genotype: Gal4-elav^c155 UAS-Aβ1-42. […]

Data set [4] concerns the target T2, Aβ1-42 (Homo sapiens, UniProt P05067).
T2 construct: Amyloid β-peptide(1-42) and amyloid β-peptide(1-40) trifluoroacetate salts; purchased Bachem (Bubendorf, Switzerland); host or cells: synthetic peptide
The experiment in a line: Fluorescence anisotropy (polarization) titration with Aβ1-42. Type of data set: binding. On the procedure:
For the florescence anisotropy studies SY-81 or SY-83 was dissolved in DMSO to a concentration of 1 μM and sonicated for 5 min. The solution was immediately mixed with aliquots of an Aβ1-42 stock solution (20 μM) to varying final polypeptide concentrations. SY-81 and SY-83 polarization measurements were carried out using an ISS K2 fluorimeter. The solutions were excited at 280 nm and emission was monitored at 350 nm. For each single point, at least five measurements were collected and their average values were used for the calculation. All experiments were performed in PBS (pH 7.4).
Increasing amounts of Aβ were titrated into a solution of SY-83 or SY-81 and the anisotropy 15 was determined (FIG. 4A-B).

Data set [5] concerns 56 KD Aβ species. In words: Western blot of soluble brain fractions (6E10 antibody). Type of data set: in vivo. The note with it: 5XFAD mice, 1 mg intraperitoneally every other day for 4 months.

T1 sequence (P05067 672-711 limits assumed): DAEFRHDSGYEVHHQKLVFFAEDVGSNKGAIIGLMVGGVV
T2 sequence (P05067 672-713 limits assumed): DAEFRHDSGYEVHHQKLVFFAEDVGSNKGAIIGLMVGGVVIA

Consider `O=C1C=C(NC(Cc2c[nH]c3ccccc23)C(=O)O)C(=O)c2ccccc21` (stereo not shown) [SY-81], for which the IC50 in data set [1] (end point experiment, various concentrations, read-out: IC50 of fibril formation) worked out at 50 nM. The “toxic effect of the compound on its own (cell viability)” value in data set [2] is reported as “no toxic effect”. In addition, the “climbing behavior of control males” value in data set [3] was “No effect”. For the same compound, the Kd in data set [4] (fluorescence anisotropy, PBS pH 7.4, read-out: affinity towards Aβ) was around 90 nM.
For the compound `O=C1C(Cl)=C(NC(Cc2c[nH]c3ccccc23)C(=O)O)C(=O)c2ccccc21` (stereo not shown) [SY-83], half-maximal inhibition in data set [1] (IC50) was put at 100 nM. This compound also displayed a Kd in data set [4] of around 900 nM. Moreover, the “reduction in 56 KD Aβ species in soluble brain fractions” value in data set [5] is 91%.
